{
  "source": "patent US7691418B2",
  "about": "“Composition for inhibiting or preventing the formation of a biofilm” (Oystershell NV, priority 2004, dated 2010)",
  "key": {"[1]": {"tested_on": "glycosyltransferase (GTF); dextran sucrase of Leuconostoc mesenteroides", "test": "GTF enzyme assay: insoluble dextran formation followed by turbidity at 690 nm", "format": "biochemical", "conditions": "positive controls: TRIS 2, 10, 100 mM; DJM 10 mM"}, "S. mutans biofilm": {"tested_on": "S. mutans biofilm", "test": "S. mutans biofilm formation on hydroxyl apatite discs in Modified Robbins Devices, SYTO 9 fluorescence", "format": "cell-based, Streptococcus mutans", "conditions": "FIG. 12; 5 μg/ml (sub-MIC)", "text": "A first example illustrates the influence of extracts according to the invention on the development of a S. mutans biofilm. Hereby a model system for the study of biofilm formation on discs was used. The system comprises the irrigation of a growing medium and micro-organisms on discs and to develop the formation of microbial biofilms thereon. The system permits to compare biomasses of biofilms which were and were not exposed to plant extracts according to the invention. Since teeth comprise hydroxyl apatite (HAP), discs comprising HAP (Clarkson Chromatography Products, South Williamsport, Pa., USA) were used for each experiment. […] Before starting biofilm experiments, the minimum inhibitory concentration (MIC value) was determined for each plant extract. […] Quantification of biofilm formation was done by putting the HAP discs in a microtiter plate, followed by staining the discs with a SYTO®9 solution, that stains the DNA of living bacteria as well as of dead bacteria. After an incubation period of approximately 15 minutes the microtiter plate was scanned in an automatic microtiter plate reader (Wallac 1420 Multilabel Counter (Victor^2™; Perkin Elmer Life and Analytical Sciences, Boston, Mass., USA) able to measure absorption as well as fluorescence and luminescence."}},
  "data": [
    {"smiles": "NC(CO)(CO)CO", "note": "[TRIS]", "values": [
      {"measurement": "absorption of formed dextran with known GTF inhibitors", "setting": "[1]", "value": "decrease in absorption"}
    ]},
    {"smiles": "OC[C@H]1NC[C@H](O)[C@@H](O)[C@@H]1O", "note": "[DJM, 1-deoxynojirimycine]", "values": [
      {"measurement": "absorption of formed dextran with known GTF inhibitors", "setting": "[1]", "value": "decrease in absorption"}
    ]},
    {"smiles": "Cc1cc(O)c2c(c1)C(=O)c1cc(O)cc(O)c1C2=O", "note": "[emodin]", "values": [
      {"measurement": "average fluorescence values compared with positive control BHIS", "setting": "S. mutans biofilm", "value": "significantly lower that those of the positive control BHIS"}
    ]}
  ]
}
